Reference: ChEMBL document CHEMBL5233265, “Recent advances in the design and development of formyl peptide receptor 2 (FPR2/ALX) agonists as pro-resolving agents with diverse therapeutic potential” (Eur J Med Chem, 2021)

Key:
fMet-Leu-Phe receptor [1] = target: T1, fMet-Leu-Phe receptor (Homo sapiens, UniProt P21462); assay: Agonist activity at human FPR1 expressed in CHO-A12 cells assessed as cAMP level incubated for 1.5 hr by HTRF assay; format: cell-based
T1 sequence (P21462 whole entry): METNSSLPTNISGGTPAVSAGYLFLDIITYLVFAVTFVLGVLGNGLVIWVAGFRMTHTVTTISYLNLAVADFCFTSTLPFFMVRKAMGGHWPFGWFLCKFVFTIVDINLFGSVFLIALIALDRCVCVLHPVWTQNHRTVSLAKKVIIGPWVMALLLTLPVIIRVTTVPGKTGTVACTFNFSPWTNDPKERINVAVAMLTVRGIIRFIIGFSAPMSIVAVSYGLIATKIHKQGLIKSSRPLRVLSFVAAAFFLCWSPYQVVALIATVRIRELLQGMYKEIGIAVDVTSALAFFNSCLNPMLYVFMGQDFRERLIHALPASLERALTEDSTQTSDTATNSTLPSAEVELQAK

[2] = target: T2, N-formyl peptide receptor 2 (Homo sapiens, UniProt P25090); assay: Agonist activity at human FPR2 expressed in CHO-A12 cells assessed as cAMP level incubated for 1.5 hr by HTRF assay; format: cell-based
T2 sequence (P25090 whole entry): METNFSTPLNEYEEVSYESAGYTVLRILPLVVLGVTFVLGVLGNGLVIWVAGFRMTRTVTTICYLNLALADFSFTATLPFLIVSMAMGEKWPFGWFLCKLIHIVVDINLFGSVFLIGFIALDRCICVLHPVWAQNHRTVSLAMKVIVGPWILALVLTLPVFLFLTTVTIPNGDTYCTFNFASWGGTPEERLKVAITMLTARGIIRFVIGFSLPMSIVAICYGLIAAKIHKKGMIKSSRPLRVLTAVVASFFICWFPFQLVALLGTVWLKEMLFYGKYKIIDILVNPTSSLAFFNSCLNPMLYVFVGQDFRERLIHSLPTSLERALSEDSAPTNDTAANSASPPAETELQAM

fMet-Leu-Phe receptor [3] = target: T3, fMet-Leu-Phe receptor (Mus musculus, UniProt P33766); assay: Agonist activity at mouse FPR1 expressed in CHO-A12 cells assessed as cAMP level incubated for 1.5 hr by HTRF assay; format: cell-based
T3 sequence (P33766 whole entry): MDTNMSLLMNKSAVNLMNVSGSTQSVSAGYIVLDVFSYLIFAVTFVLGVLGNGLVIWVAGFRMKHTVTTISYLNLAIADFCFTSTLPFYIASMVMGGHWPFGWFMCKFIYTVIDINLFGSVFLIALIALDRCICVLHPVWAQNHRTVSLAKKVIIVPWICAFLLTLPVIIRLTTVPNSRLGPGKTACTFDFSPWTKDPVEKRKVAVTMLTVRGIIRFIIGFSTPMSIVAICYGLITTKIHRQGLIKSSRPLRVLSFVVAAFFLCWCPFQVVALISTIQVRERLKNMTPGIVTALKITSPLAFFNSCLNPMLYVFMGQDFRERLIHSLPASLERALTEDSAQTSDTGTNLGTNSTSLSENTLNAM

[4] = target: T4, Formyl peptide receptor 2 (Mus musculus, UniProt O88536); assay: Agonist activity at mouse FPR2 expressed in CHO-A12 cells assessed as cAMP level incubated for 1.5 hr by HTRF assay; format: cell-based
T4 sequence (O88536 whole entry): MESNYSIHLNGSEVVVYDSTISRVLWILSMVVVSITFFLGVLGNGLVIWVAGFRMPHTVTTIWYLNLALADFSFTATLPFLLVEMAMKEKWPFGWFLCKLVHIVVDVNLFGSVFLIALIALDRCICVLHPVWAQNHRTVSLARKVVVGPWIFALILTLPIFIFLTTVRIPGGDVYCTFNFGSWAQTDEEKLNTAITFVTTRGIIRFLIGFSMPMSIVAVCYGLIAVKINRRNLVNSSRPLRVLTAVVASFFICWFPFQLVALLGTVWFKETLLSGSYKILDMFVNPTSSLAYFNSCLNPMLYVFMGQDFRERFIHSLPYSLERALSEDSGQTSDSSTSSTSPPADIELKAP

[5] = target: T5, Formyl peptide receptor-related sequence 1 (Mus musculus, UniProt O08790); assay: Agonist activity at mouse FPR3 expressed in CHO-A12 cells assessed as cAMP level incubated for 1.5 hr by HTRF assay; format: cell-based
T5 sequence (O08790 whole entry): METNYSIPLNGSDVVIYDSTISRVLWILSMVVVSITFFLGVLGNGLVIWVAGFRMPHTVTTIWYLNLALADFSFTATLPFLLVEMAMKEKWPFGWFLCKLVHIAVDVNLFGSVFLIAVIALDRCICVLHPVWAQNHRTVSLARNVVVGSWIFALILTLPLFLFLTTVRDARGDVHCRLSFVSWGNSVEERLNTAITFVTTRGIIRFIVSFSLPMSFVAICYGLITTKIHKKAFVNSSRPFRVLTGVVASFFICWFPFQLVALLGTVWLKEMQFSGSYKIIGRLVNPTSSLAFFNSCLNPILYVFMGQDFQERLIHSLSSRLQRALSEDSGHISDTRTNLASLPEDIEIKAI

[6] = target: T2, N-formyl peptide receptor 2; assay: Agonist activity at human FPR2 expressed in CHO-K1 cells by beta-arrestin recruitment assay; format: cell-based
HL-60 [7] = assay: Induction of cell migration in human HL-60 cells incubated for 120 mins by transwell assay; format: functional, cell-based; details: HL-60, 2 h
HL-60 [8] = assay: Inhibition of cell migration in human HL-60 cells incubated for 120 mins in presence of serum amyloid A by transwell assay; format: functional, cell-based; details: HL-60, 2 h
Mus musculus [9] = assay: Neuroprotective activity against Myocardial infarction C57BL/6 mouse model assessed as reduction in infarct area at 1 mg/kg,po qd measured after 4 weeks; format: functional; design: scale not given: the % may be the effect or the level left
Mus musculus [10] = assay: Neuroprotective activity against Myocardial infarction C57BL/6 mouse model assessed as reduction in infarct area at 10 mg/kg,po qd measured after 4 weeks; format: functional; design: scale not given: the % may be the effect or the level left
Rattus norvegicus [11] = assay: Neuroprotective activity against ischemia-reperfusion injury Sprague-Dawley rat model assessed as increase in ejection fraction at 10 mg/kg,po qd measured after 6 weeks; format: functional
Rattus norvegicus [12] = assay: Neuroprotective activity against ischemia-reperfusion injury Sprague-Dawley rat model assessed as increase in proximal viable myocardium at 10 mg/kg,po qd measured after 6 weeks; format: functional
Rattus norvegicus [13] = assay: Neuroprotective activity against ischemia-reperfusion injury Sprague-Dawley rat model assessed as increase in mid viable myocardium at 10 mg/kg,po qd measured after 6 weeks; format: functional
Rattus norvegicus [14] = assay: Neuroprotective activity against ischemia-reperfusion injury Sprague-Dawley rat model assessed as increase in distal viable myocardium at 10 mg/kg,po qd measured after 6 weeks; format: functional
Mus musculus [15] = assay: Neuroprotective activity against Myocardial infarction C57BL/6 mouse model assessed as fold increase in infarct wall thickness at 10 mg/kg,po qd measured after 4 weeks; format: functional

- EC50 (fMet-Leu-Phe receptor [1]): 50 nM
- EC50 [2]: 10 nM
- EC50 (fMet-Leu-Phe receptor [3]): 20 nM
- EC50 [4]: 50 nM
- EC50 [5]: > 1000 nM
- EC50 [6]: 3100 nM
- EC50 (HL-60 [7]): 78 nM
- IC50 (HL-60 [8]): 189 nM
SMILES: Cn1c(C(C)(C)C)c(NC(=O)Nc2ccc(Cl)cc2)c(=O)n1-c1ccccc1
- Activity (Mus musculus [9]): 44%
- Activity (Mus musculus [10]): 49%
- Activity (Rattus norvegicus [11]): 32%
- Activity (Rattus norvegicus [12]): 34%
- Activity (Rattus norvegicus [13]): 44%
- Activity (Rattus norvegicus [14]): 35%
- fold change (FC) (Mus musculus [15]): 1.6
